Among the data in patent US9006241B2, “Pyrimidine derivatives” (Noviga Research AB, priority 2011, dated 2015) are EC50 values, retold here.

As usually defined, the EC50 is the midpoint of the concentration-response curve. A low value points to a more potent agent.

What all share (assay type): cell-based
In assay [1] the test system is 8226/Dox40 (doxorubicin-resistant myeloma). As to the kind of experiment: FMCA, 8226/Dox40. The following applies: 8226/Dox40 doxorubicin-resistant myeloma cells. The text has this:
(§1) The Fluorometric Microculture Cytotoxicity Assay, FMCA (Larsson, R., et al.; Anticancer Res, 1989, 9, 1111-1119), is a three day non-clonogenic microplate-based cell viability assay used for measurement of the cytotoxic and/or cytostatic effect of compounds in vitro (Lindhagen, E. et al.; Nat. Protoc., 2008, 3, 1364-1369). FMCA represents a valuable method to measure cytotoxicity in a number of cell types, both cell lines and primary cells from patients (Larsson, R., et al.; Int. J. Cancer, 1992, 50, 177-185; Fridborg, H., et al.; Eur. J. Cancer, 1999. 35, 424-432; Dhar, S., et al.; Br. J. Cancer, 1996, 74, 888-896).
(§2) FMCA is based on the principle that fluorescein diacetate (FDA) is converted to the fluorescent probe fluorescein by esterases in the plasma membranes of living cells. For experiments, 96 or 384-well microplates are prepared with compounds and stored at −70° C. until use. Cells are then seeded into the drug-prepared plates and placed in an incubator for 72 h. On the last day of incubation, the plates are washed and a buffer containing FDA is added and incubated with the cells for 45 minutes. Finally the fluorescence per well is measured in a fluorometer and a Survival Index % (SI) for each compound-treated well is calculated with the equation: Compound-treated cells minus blank divided by control cells minus blank. A high SI-value indicates a large percentage of living cells and vice versa.
(§3) For dose-response experiments, 384-well plates were prepared as follows:
(§4) Compounds of the invention as well comparative kinase inhibitors sorafenib sunitinib, dasatinib, pazopanib and a reference compound disclosed in WO 2009/071535 (compound #107) were diluted with PBS to a concentration ten-times higher than the desired starting concentration. Then, a Biomek 2000 liquid handling system was employed to serially dilute the compounds in a deep-well 384-well plate. From this plate, assay plates containing 5 μl compound per well were prepared with the Biomek 2000. Certain compounds precipitated when diluted with PBS, and these compounds were therefore prepared in a 96-well plate manually as described above using culture medium RPMI 1640 instead of PBS.
(§5) The compounds were also tested at five concentrations, with five times serial dilution on the following cell types: CCRF-CEM, hTERT-RPE1 (normal retinal epithelial cells), hRPTEpiC (normal renal cells), and peripheral blood mononuclear cells (PBMC). Each experiment was performed three times, except for PBMC and hRPTEpiC, which were performed twice. SI-values were calculated, graphs were plotted using GraphPadPrism 5.0 (GraphPad Software Inc. La Jolla, Calif.) and IC50-values for each cell type and compound were determined from the curves.
(§6) The compounds of the invention were also tested on further cancer cell lines related to breast cancer (MDA-MB-231; see e.g. Cailleau, R., et al.; J. Natl. Cancer Inst., 1974, 53, 661-674), teniposide-resistant leukemia (CEM/VM1 see e.g. Danks, M., et al.; Cancer Res., 1987, 47, 1297-1301), leukemia (HL-60; see e.g. Collins, S., et al.; Nature, 1977, 270, 347-349), doxorubicin-resistant lung cancer (H69AR; see e.g. Mirski, S., et al.; Cancer Res., 1987, 47, 2594-2598), myeloma (RPMI 8226; see e.g. Matsuoka, Y., et al.; Proc. Soc. Exp. Biol. Med., 1967, 125, 1246-1250), doxorubicin-resistant myeloma (8226/Dox40; see e.g. Dalton, W., et al.; Blood, 1989, 15, 747-752), lymphoma (U-937, see e.g. Sundström, C., et al.; Int. J. Cancer, 1976, 17, 565-577), vincristin-resistant lymphoma (U-937-vcr; see e.g. Botling, J., et al.; Int. J. Cancer, 1994, 58, 269-274), ovarian cancer (A2780; see e.g. Hamilton, T., et al.; Semin. Oncol., 1984, 11, 285-298), doxorubicin-resistant ovarian cancer (A2780/Adr), cisplatin-resistant ovarian cancer (A2780/Cis; see e.g. Behrens, B., et al. Cancer Res. 1987, 47, 414-418), pancreatic cancer (PANC-1, BxPC-3, and MIA PaCa-2; see e.g. Lieber, M., et al.; Int. J. Cancer, 1975, 15, 741-747; Loor, R., et al.; Clin. Lab. […]

For assay [2], the system named is A2780/Cis (cisplatin-resistant ovarian cancer). In words: FMCA, A2780/Cis. The following applies: A2780cis, A2780/Cis cisplatin-resistant ovarian cancer cells.
From the text: as §1, §2, §3, §4, §5, §6

Assay [3] concerns CCRF-CEM cancer cells - leukemia. In words: Fluorometric Microculture Cytotoxicity Assay (FMCA), CCRF-CEM. The following applies: Homo sapiens, 72 h incubation.
Assay [4] relates to A2780/Adr (doxorubicin-resistant ovarian cancer). As to the kind of experiment: FMCA, A2780/Adr. The following applies: A2780/Adr doxorubicin-resistant ovarian cancer cells.
From the text: as §1, §2, §3, §4, §5, §6

In assay [5] the test system is MIA PaCa-2 (pancreatic cancer). As to the kind of experiment: FMCA, MIA PaCa-2. Conditions: Homo sapiens, MIA PaCa-2 pancreatic cancer cells.
From the text: as §1, §2, §3, §4, §5
(§7) The compounds of the invention were also tested on further cancer cell lines related to breast cancer (MDA-MB-231; see e.g. Cailleau, R., et al.; J. Natl. Cancer Inst., 1974, 53, 661-674), teniposide-resistant leukemia (CEM/VM1 see e.g. Danks, M., et al.; Cancer Res., 1987, 47, 1297-1301), leukemia (HL-60; see e.g. Collins, S., et al.; Nature, 1977, 270, 347-349), doxorubicin-resistant lung cancer (H69AR; see e.g. Mirski, S., et al.; Cancer Res., 1987, 47, 2594-2598), myeloma (RPMI 8226; see e.g. Matsuoka, Y., et al.; Proc. Soc. Exp. Biol. Med., 1967, 125, 1246-1250), doxorubicin-resistant myeloma (8226/Dox40; see e.g. Dalton, W., et al.; Blood, 1989, 15, 747-752), lymphoma (U-937, see e.g. Sundström, C., et al.; Int. […]

Assay [6] relates to BxPC-3 (pancreatic cancer). In words: FMCA, BxPC-3. The following applies: Homo sapiens, BxPC-3 pancreatic cancer cells.
From the text: as §1, §2, §3, §4, §5, §7

In assay [7] the test system is MDA-MB-231 (breast cancer). In words: FMCA, MDA-MB-231. Conditions: Homo sapiens, MDA-MB-231 breast cancer cells.
From the text: as §1, §2, §3, §4, §5, §7

Assay [8] relates to PANC-1 (pancreatic cancer). In words: FMCA, PANC-1. Conditions: Homo sapiens, PANC-1 pancreatic cancer cells.
From the text: as §1, §2, §3, §4, §5, §7

In a further assay the test system is RPMI 8226 (myeloma). As to the kind of experiment: FMCA, RPMI 8226. The following applies: Homo sapiens, RPMI 8226 myeloma cells.
From the text: as §1, §2, §3, §4, §5, §6

The test system of assay [9] is H69AR (doxorubicin-resistant lung cancer). In words: FMCA, H69AR. The following applies: Homo sapiens, H69AR doxorubicin-resistant lung cancer cells.
From the text: as §1, §2, §3, §4, §5, §6

The next assay concerns A2780 (ovarian cancer). As to the kind of experiment: FMCA, A2780. The following applies: Homo sapiens, A2780 ovarian cancer cells.
From the text: as §1, §2, §3, §4, §5, §6

In assay [10] the test system is CEM/VM1 (teniposide-resistant leukemia). In words: FMCA, CEM/VM1. The following applies: Homo sapiens, CEM/VM1 teniposide-resistant leukemia cells.
From the text: as §1, §2, §3, §4, §5, §6

Another assay has as its system PC-3 (prostate cancer). As to the kind of experiment: FMCA, PC-3. Conditions: PC-3 prostate cancer cells.
From the text: as §1, §2, §3, §4, §5, §7

For assay [11], the system named is U-937-vcr (vincristin-resistant lymphoma). In words: FMCA, U-937-vcr. The following applies: U-937-vcr vincristin-resistant lymphoma cells.
From the text: as §1, §2, §3, §4, §5, §6

The subject of the next assay is U-937 (lymphoma). As to the kind of experiment: FMCA, U-937. Conditions: Homo sapiens, U-937 lymphoma cells.
From the text: as §1, §2, §3, §4, §5, §6

Another assay deals with HL-60 (leukemia). As to the kind of experiment: FMCA, HL-60. The following applies: Homo sapiens, HL-60 leukemia cells.
From the text: as §1, §2, §3, §4, §5, §7

Regarding `COc1ccc2[nH]cc(CCNc3nccc(Nc4ccc5[nH]c(CO)cc5c4)n3)c2c1` [Example 15, (5-{2-[2-(5-methoxy-1H-indol-3-yl)ethylamino]pyrimidin-4-ylamino}-1H-indol-2-yl)methanol], the EC50 was 4300 nM in assay [1]; 96 nM in assay [2]; 27 nM in assay [3]; 980 nM in assay [4]; 58 nM in assay [5]; 120 nM in [6]. For the same molecule, the EC50 in assay [7] came to 150 nM; in assay [8], 1400 nM; in the assay with RPMI 8226 (myeloma), 1400 nM; in assay [9], 120 nM; in the assay on A2780 (ovarian cancer), 55 nM; in [10], 71 nM. Also, the EC50 in the assay with PC-3 (prostate cancer) turned out to be 310 nM; in assay [11], 69 nM; with U-937 (lymphoma) it was 37 nM; in the assay on HL-60 (leukemia), 31 nM.
Consider `CCOc1ccc2[nH]cc(CCNc3nccc(Nc4ccc5[nH]c(C)cc5c4)n3)c2c1` [Example 5, N^2-[2-(5-ethoxy-1H-indol-3-yl)ethyl]-N^4-(2-methyl-1H-indol-5-yl)pyrimidine-2,4-diamine], for which the EC50 in assay [1] came to 160 nM; in assay [2], 33 nM; in assay [3], 15 nM; in assay [4] it was 180 nM; in assay [5], 18 nM; in [6], 55 nM. Moreover, the EC50 in [7] was 57 nM; in assay [8], 430 nM; with RPMI 8226 (myeloma) it was 42 nM; in assay [9] it was 94 nM; in the assay with A2780 (ovarian cancer) it was 51 nM; in [10] it was 17 nM. Also, the concentration giving a half-maximal response (EC50) was 150 nM with PC-3 (prostate cancer), 20 nM in assay [11], 22 nM in the assay with U-937 (lymphoma) and 8.2 nM with HL-60 (leukemia).
On to `COc1ccc2[nH]cc(CCNc3nccc(Nc4ccc5[nH]c(C)nc5c4)n3)c2c1` [Example 19, N^2-[2-(5-methoxy-1H-indol-3-yl)ethyl]-N^4-(2-methyl-1H-benzo[d]imidazol-5-yl)pyrimidine-2,4-diamine], for which the EC50 in assay [1] turned out to be 30000 nM; in assay [2] it was 230 nM; in [3], 32 nM; in assay [4], 2000 nM; in assay [5], 31 nM; in assay [6], 910 nM. Also, the EC50 in assay [7] turned out to be 1900 nM; in assay [8], 5200 nM; with RPMI 8226 (myeloma), 7800 nM; in assay [9] it was 940 nM; with A2780 (ovarian cancer), 130 nM; in [10], 62 nM. Moreover, the EC50 in the assay with PC-3 (prostate cancer) was found to be 2100 nM; in assay [11], 780 nM; with U-937 (lymphoma) it was 100 nM; in the assay on HL-60 (leukemia) it was 92 nM.
